Test results as given in PubChem BioAssay (NCI).
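Five concentrations, 48 hours, 96-well plates. GI50 = concentration required for 50% inhibition of growth. TGI is the concentration that stops growth completely.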

Columns and labels:
Assay in all cases: DTP human tumour cell line panel, 48 h
[1] = test system: 786-0 renal
[2] = test system: A498 renal
[3] = test system: A549 NSCLC
[4] = test system: ACHN renal
[5] = test system: BT-549 breast
[6] = test system: CAKI-1 renal
[7] = test system: CCRF-CEM leukemia
[8] = test system: COLO 205 colon
[9] = test system: DU-145 prostate
[10] = test system: EKVX NSCLC
[11] = test system: HCC-2998 colon
[12] = test system: HCT-116 colon
[13] = test system: HCT-15 colon
[14] = test system: HL-60(TB) leukemia
[15] = test system: HOP-62 NSCLC
[16] = test system: HOP-92 NSCLC
[17] = test system: HS 578T breast
[18] = test system: HT29 colon
[19] = test system: IGROV1 ovarian
[20] = test system: K-562 leukemia
[21] = test system: KM12 colon
[22] = test system: LOX IMVI melanoma
[23] = test system: M14 melanoma
[24] = test system: MALME-3M melanoma
[25] = test system: MCF7 breast
[26] = test system: MDA-MB-231 breast
[27] = test system: MDA-MB-435
[28] = test system: MOLT-4 leukemia
[29] = test system: NCI-H226 lung
[30] = test system: NCI-H23 lung
[31] = test system: NCI-H460 lung
[32] = test system: NCI-H522 lung
[33] = test system: NCI/ADR-RES ovarian
[34] = test system: OVCAR-3 ovarian
[35] = test system: OVCAR-4 ovarian
[36] = test system: OVCAR-5 ovarian
[37] = test system: OVCAR-8 ovarian
[38] = test system: PC-3 prostate
[39] = test system: RPMI-8226 leukemia
[40] = test system: RXF 393 renal
[41] = test system: SF-268 CNS
[42] = test system: SF-295 CNS
[43] = test system: SF-539 CNS
[44] = test system: SK-MEL-28 melanoma
[45] = test system: SK-MEL-5 melanoma
[46] = test system: SN12C renal
[47] = test system: SNB-19 CNS
[48] = test system: SNB-75 CNS
[49] = test system: SR leukemia
[50] = test system: SW-620 colon
[51] = test system: T-47D breast
[52] = test system: TK-10 renal
[53] = test system: U251 CNS
[54] = test system: UACC-257 melanoma
[55] = test system: UACC-62 melanoma
[56] = test system: UO-31 renal
[57] = test system: SK-MEL-2 melanoma
[58] = test system: SK-OV-3 ovarian

COc1cc2c(cc1OCCCNC(=O)/C=C1/C[C@H]3C=Nc4cc(OCc5ccccc5)c(OC)cc4C(=O)N3C1)NC(=O)[C@@H]1CCCN1C2=O
GI50 [1]: 51 µM
TGI [1]: > 100 µM
GI50 [2]: 58.9 µM
TGI [2]: > 100 µM
GI50 [3]: > 100 µM
TGI [3]: > 100 µM
GI50 [4]: > 100 µM
TGI [4]: > 100 µM
GI50 [5]: 23.9 µM
TGI [5]: 53.5 µM
GI50 [6]: > 100 µM
TGI [6]: > 100 µM
GI50 [7]: 40.8 µM
TGI [7]: > 100 µM
GI50 [8]: 54.6 µM
TGI [8]: > 100 µM
GI50 [9]: 52.1 µM
TGI [9]: > 100 µM
GI50 [10]: > 100 µM
TGI [10]: > 100 µM
GI50 [11]: 60.3 µM
TGI [11]: > 100 µM
GI50 [12]: 73.7 µM
TGI [12]: > 100 µM
GI50 [13]: > 100 µM
TGI [13]: > 100 µM
GI50 [14]: 51.9 µM
TGI [14]: > 100 µM
GI50 [15]: 41.3 µM
TGI [15]: > 100 µM
GI50 [16]: 47.2 µM
TGI [16]: > 100 µM
GI50 [17]: 34.4 µM
TGI [17]: > 100 µM
GI50 [18]: 45.2 µM
TGI [18]: > 100 µM
GI50 [19]: > 100 µM
TGI [19]: > 100 µM
GI50 [20]: 82.8 µM
TGI [20]: > 100 µM
GI50 [21]: 47.5 µM
TGI [21]: > 100 µM
GI50 [22]: 43.3 µM
TGI [22]: > 100 µM
GI50 [23]: 55.3 µM
TGI [23]: > 100 µM
GI50 [24]: > 100 µM
TGI [24]: > 100 µM
GI50 [25]: 32 µM
TGI [25]: > 100 µM
GI50 [26]: 50.9 µM
TGI [26]: > 100 µM
GI50 [27]: 44.2 µM
TGI [27]: > 100 µM
GI50 [28]: 29.6 µM
TGI [28]: > 100 µM
GI50 [29]: 69.5 µM
TGI [29]: > 100 µM
GI50 [30]: > 100 µM
TGI [30]: > 100 µM
GI50 [31]: 38.9 µM
TGI [31]: > 100 µM
GI50 [32]: 31.3 µM
TGI [32]: > 100 µM
GI50 [33]: > 100 µM
TGI [33]: > 100 µM
GI50 [34]: > 100 µM
TGI [34]: > 100 µM
GI50 [35]: 73.8 µM
TGI [35]: > 100 µM
GI50 [36]: 93.5 µM
TGI [36]: > 100 µM
GI50 [37]: > 100 µM
TGI [37]: > 100 µM
GI50 [38]: 77.3 µM
TGI [38]: > 100 µM
GI50 [39]: 43.6 µM
TGI [39]: > 100 µM
GI50 [40]: 33.6 µM
TGI [40]: > 100 µM
GI50 [41]: 39.6 µM
TGI [41]: > 100 µM
GI50 [42]: 84.7 µM
TGI [42]: > 100 µM
GI50 [43]: 32.4 µM
TGI [43]: 85.5 µM
GI50 [44]: > 100 µM
TGI [44]: > 100 µM
GI50 [45]: 22.5 µM
TGI [45]: 68.1 µM
GI50 [46]: 18.4 µM
TGI [46]: > 100 µM
GI50 [47]: 43.3 µM
TGI [47]: > 100 µM
GI50 [48]: 32.7 µM
TGI [48]: 98.1 µM
GI50 [49]: 17.5 µM
TGI [49]: 49.2 µM
GI50 [50]: 33.3 µM
TGI [50]: > 100 µM
GI50 [51]: > 100 µM
TGI [51]: > 100 µM
GI50 [52]: > 100 µM
TGI [52]: > 100 µM
GI50 [53]: 33.3 µM
TGI [53]: > 100 µM
GI50 [54]: > 100 µM
TGI [54]: > 100 µM
GI50 [55]: 55.2 µM
TGI [55]: > 100 µM
GI50 [56]: > 100 µM
TGI [56]: > 100 µM

c1ccc(CSSSCc2ccccc2)cc1
TGI [1]: 12.8 µM
TGI [2]: > 100 µM
TGI [3]: > 100 µM
TGI [4]: 29.1 µM
TGI [5]: 19.8 µM
TGI [6]: 22.6 µM
TGI [8]: 11.6 µM
TGI [9]: 4.97 µM
TGI [10]: > 100 µM
TGI [11]: 17.8 µM
TGI [12]: 12.1 µM
TGI [13]: > 100 µM
TGI [14]: 3.22 µM
TGI [15]: 5.03 µM
TGI [16]: > 92.7 µM
TGI [17]: > 31 µM
TGI [18]: 19.6 µM
TGI [19]: > 90.9 µM
TGI [21]: > 100 µM
TGI [22]: 17.4 µM
TGI [23]: > 100 µM
TGI [24]: > 100 µM
TGI [25]: > 42.1 µM
TGI [26]: 23.7 µM
TGI [27]: 2.83 µM
TGI [28]: > 100 µM
TGI [30]: > 48.5 µM
TGI [31]: 16.2 µM
TGI [32]: 3.33 µM
TGI [33]: 9.78 µM
TGI [34]: 2.98 µM
TGI [35]: 38 µM
TGI [36]: 41.2 µM
TGI [37]: > 41.2 µM
TGI [38]: > 100 µM
TGI [39]: 10.8 µM
TGI [40]: 14.8 µM
TGI [41]: 31.4 µM
TGI [42]: 49.8 µM
TGI [57]: 8.36 µM
TGI [44]: > 100 µM
TGI [45]: 15.3 µM
TGI [58]: 22.9 µM
TGI [46]: 18 µM
TGI [47]: > 100 µM
TGI [48]: 39.4 µM
TGI [49]: 87.3 µM
TGI [50]: > 51.9 µM
TGI [51]: > 64.5 µM
TGI [52]: > 73.9 µM
TGI [53]: 17.1 µM
TGI [54]: > 95.4 µM
TGI [55]: 16.1 µM
TGI [56]: 37.1 µM

CC(=O)Nc1ccc2c(C3=C(c4cn(C)c5ccccc45)C(=O)NC3=O)cn(C)c2c1
GI50 [1]: 2.09 µM
TGI [1]: > 25 µM
GI50 [2]: 0.386 µM
TGI [2]: 12.8 µM
GI50 [3]: 1.05 µM
TGI [3]: > 25 µM
GI50 [4]: 1.42 µM
TGI [4]: > 25 µM
GI50 [5]: > 25 µM
TGI [5]: > 25 µM
GI50 [6]: 2.08 µM
TGI [6]: > 25 µM
GI50 [7]: 0.0773 µM
TGI [7]: > 25 µM
GI50 [8]: 0.691 µM
TGI [8]: 1.72 µM
GI50 [9]: 1.01 µM
TGI [9]: > 24.2 µM
GI50 [11]: 0.89 µM
TGI [11]: > 25 µM
GI50 [12]: 0.697 µM
TGI [12]: > 16.6 µM
GI50 [13]: 1.24 µM
TGI [13]: > 25 µM
GI50 [14]: 0.921 µM
TGI [14]: > 25 µM
GI50 [15]: 1.15 µM
TGI [15]: > 25 µM
GI50 [17]: 0.443 µM
TGI [17]: > 25 µM
GI50 [18]: 0.833 µM
TGI [18]: > 25 µM
GI50 [19]: 1.47 µM
TGI [19]: > 25 µM
GI50 [20]: 0.762 µM
TGI [20]: > 25 µM
GI50 [21]: 0.749 µM
TGI [21]: > 15 µM
GI50 [22]: 0.634 µM
TGI [22]: > 25 µM
GI50 [23]: 0.945 µM
TGI [23]: > 25 µM
GI50 [24]: > 25 µM
TGI [24]: > 25 µM
GI50 [25]: 0.294 µM
TGI [25]: > 25 µM
GI50 [26]: 0.821 µM
TGI [26]: > 25 µM
GI50 [27]: 0.118 µM
TGI [27]: 0.842 µM
GI50 [28]: 1.06 µM
TGI [28]: > 25 µM
GI50 [29]: > 6.26 µM
TGI [29]: > 25 µM
GI50 [30]: 1.16 µM
TGI [30]: > 25 µM
GI50 [31]: 0.881 µM
TGI [31]: > 25 µM
GI50 [32]: 0.218 µM
TGI [32]: 1.31 µM
GI50 [33]: 13.9 µM
TGI [33]: > 25 µM
GI50 [34]: 0.737 µM
TGI [34]: 3.1 µM
GI50 [35]: 1.28 µM
TGI [35]: > 25 µM
GI50 [37]: 0.9 µM
TGI [37]: > 25 µM
GI50 [38]: 0.802 µM
TGI [38]: > 25 µM
GI50 [39]: 1.11 µM
TGI [39]: > 25 µM
GI50 [40]: 0.512 µM
TGI [40]: > 7.02 µM
GI50 [41]: 1.36 µM
TGI [41]: > 25 µM
GI50 [42]: 0.552 µM
TGI [42]: > 5.63 µM
GI50 [43]: 0.376 µM
TGI [43]: 1.4 µM
GI50 [57]: 5.69 µM
TGI [57]: > 25 µM
GI50 [44]: > 5.94 µM
TGI [44]: > 25 µM
GI50 [45]: 0.637 µM
TGI [45]: 3.12 µM
GI50 [58]: 1.53 µM
TGI [58]: > 25 µM
GI50 [46]: 1.25 µM
TGI [46]: > 25 µM
GI50 [47]: 5.13 µM
TGI [47]: > 25 µM
GI50 [48]: 0.215 µM
TGI [48]: > 25 µM
GI50 [49]: 0.363 µM
TGI [49]: > 25 µM
GI50 [50]: 0.892 µM
TGI [50]: > 25 µM
GI50 [51]: > 25 µM
TGI [51]: > 25 µM
GI50 [52]: > 25 µM
TGI [52]: > 25 µM
GI50 [53]: 0.889 µM
TGI [53]: > 25 µM
GI50 [54]: > 14.9 µM
TGI [54]: > 25 µM
GI50 [55]: 1.3 µM
TGI [55]: > 25 µM
GI50 [56]: > 9.45 µM
TGI [56]: > 25 µM
